Tests used:
[1] = biological target: HCV NS3/4A protease complex, BMS strain (UniProt P27958, C1454S/C1711G, species not given/STRAIN_BMS); test: Recombinant HCV NS3/4A protease complex FRET peptide assay (BMS strain); assay type: biochemical, HCV genotype 1a; details: NS3/4A BMS strain; read-out: IC50 range
Summary of the method: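 Recombinant BMS-strain NS3/4A (His-tagged NS4A with three-lysine tail, E. coli) at 2-3 nM preincubated 1 min with compound, then 2 μM ester-linked NS4A/NS4B-based FRET peptide added. Fluorescence followed in real time ~15 min at 25° C. Percent inhibition from slope of linear fluorescence change versus no-compound control.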

[2] = test system: HCV replicon in Huh7 cells; test: HCV replicon cell-based assay; set-up: species or system HCV strain 1B; details: Hepatitis C virus, Huh-7; HCV replicon, Huh7 cells; read-out: EC50 range

SMILES | IC50 [1] [nM] | EC50 [2] [nM]
C=CC1C[C@]1(NC(=O)[C@@H]1C[C@@H](Oc2nccc3cc(C(C)C)ccc23)CN1C(=O)[C@@H](NC(=O)OC(C)(C)C)C(C)(C)C)C(=O)NS(=O)(=O)C1CC1 (stereo partly drawn) [Compound 190, BOCNH-P3(L-tert-BuGly)-P2[(4R)-(6-isopropyl isoquinolin-1-oxo)-S-proline]-P1(1R,2S Vinyl Acca)-CONHSO2-Cyclopropane] | < 100 | 100 to 1000
C=CC1C[C@]1(NC(=O)[C@@H]1C[C@@H](Oc2nccc3cc(C(C)(C)C)ccc23)CN1C(=O)[C@@H](NC(=O)OC(C)(C)C)C(C)(C)C)C(=O)NS(=O)(=O)C1CC1 (stereo partly drawn) [Compound 191, BOCNH-P3(L-tert-BuGly)-P2[(4R)-(6-tert-butyl isoquinolin-1-oxo)-S-proline]-P1(1R,2S Vinyl Acca)-CONHSO2-Cyclopropane] | < 100 | 100 to 1000
C=CC1C[C@]1(NC(=O)[C@@H]1C[C@@H](Oc2nccc3cc(OC(C)C)ccc23)CN1C(=O)[C@@H](NC(=O)OC(C)(C)C)C(C)(C)C)C(=O)NS(=O)(=O)C1CC1 (stereo partly drawn) [Compound 192, BOCNH-P3(L-tert-BuGly)-P2[(4R)-(6-isopropoxy isoquinolin-1-oxo)-S-proline]-P1(1R,2S Vinyl Acca)-CONHSO2-Cyclopropane] | < 100 | < 100
C=CC1C[C@]1(NC(=O)[C@@H]1C[C@@H](Oc2nccc3cc(OC(C)(C)C)ccc23)CN1C(=O)[C@@H](NC(=O)OC(C)(C)C)C(C)(C)C)C(=O)NS(=O)(=O)C1CC1 (stereo partly drawn) [Compound 193, BOCNH-P3(L-tert-BuGly)-P2[(4R)-(6-tert-butoxy isoquinolin-1-oxo)-S-proline]-P1(1R,2S Vinyl Acca)-CONHSO2-Cyclopropane] | < 100 | 100 to 1000
C=CC1C[C@]1(NC(=O)[C@@H]1C[C@@H](Oc2nncc3ccccc23)CN1C(=O)[C@@H](NC(=O)OC(C)(C)C)C(C)(C)C)C(=O)NS(=O)(=O)C1CC1 (stereo partly drawn) [Compound 194, BOCNH-P3(L-tert-BuGly)-P2[(4R)-(phthalazine-1-oxo)-S-proline]-P1(1R,2S Vinyl Acca)-CONHSO2-Cyclopropane] | < 100 | 100 to 1000
C=CC1C[C@]1(NC(=O)[C@@H]1C[C@@H](Oc2nnc(Cl)c3ccccc23)CN1C(=O)[C@@H](NC(=O)OC(C)(C)C)C(C)(C)C)C(=O)NS(=O)(=O)C1CC1 (stereo partly drawn) [Compound 195, BOCNH-P3(L-tert-BuGly)-P2[(4R)-(4-chloro phthalazine-1-oxo)-S -proline]-P1(1R,2S Vinyl Acca)-CONHSO2-Cyclopropane] | < 100 | < 100
C=CC1C[C@]1(NC(=O)[C@@H]1C[C@@H](Oc2nnc(-n3ccnc3)c3ccccc23)CN1C(=O)[C@@H](NC(=O)OC(C)(C)C)C(C)(C)C)C(=O)NS(=O)(=O)C1CC1 (stereo partly drawn) [Compound 196, BOCNH-P3(L-tert-BuGly)-P2[(4R)-(4-(imidazo-1-yl)phthalazine-1-oxo)-S-proline]-P1(1R,2S Vinyl Acca)-CONHSO2-Cyclopropane] | < 100 | 1000 to 10000
C=CC1C[C@]1(NC(=O)[C@@H]1C[C@@H](Oc2nnc(-n3ccnc3)c3ccccc23)CN1C(=O)[C@@H](N)C(C)(C)C)C(=O)NS(=O)(=O)C1CC1 (stereo partly drawn) [Compound 197, NH2—P3(L-tert-BuGly)-P2[(4R)-(4-(imidazo-1-yl)phthalazine-1-oxo)-S-proline]-P1(1R,2S Vinyl Acca)-CONHSO2-Cyclopropane] | 100 to 1000 | 10000 to 100000
C=CC1C[C@]1(NC(=O)[C@@H]1C[C@@H](Oc2nnc(-n3cncn3)c3ccccc23)CN1C(=O)[C@@H](NC(=O)OC(C)(C)C)C(C)(C)C)C(=O)NS(=O)(=O)C1CC1 (stereo partly drawn) [Compound 198, BOCNH-P3(L-tert-BuGly)-P2[(4R)-(4-(1,2,4-triazo-1-yl)phthalazine-1-oxo)-S-proline]-P1(1R,2S Vinyl Acca)-CONHSO2-Cyclopropane] | < 100 | 100 to 1000
C=CC1C[C@]1(NC(=O)[C@@H]1C[C@@H](Oc2nnc(OC(C)C)c3ccccc23)CN1C(=O)[C@@H](NC(=O)OC(C)(C)C)C(C)(C)C)C(=O)NS(=O)(=O)C1CC1 (stereo partly shown) [Compound 199] | < 100 | 100 to 1000
C=CC1C[C@]1(NC(=O)[C@@H]1C[C@@H](Oc2nnc(OCC)c3ccccc23)CN1C(=O)[C@@H](NC(=O)OC(C)(C)C)C(C)(C)C)C(=O)NS(=O)(=O)C1CC1 (stereo partly drawn) [Compound 200, BOCNH-P3(L-t-BuGly)-P2-[(4R)-(4-ethoxyphthalazine-1-oxo)-S-proline]-P1(1R,2S VinylAcca)-CONHSO2Cyclopropane] | < 100 | < 100
C=CC1C[C@]1(NC(=O)[C@@H]1C[C@@H](Oc2nnc(OC)c3ccccc23)CN1C(=O)[C@@H](NC(=O)OC(C)(C)C)C(C)(C)C)C(=O)NS(=O)(=O)C1CC1 (stereo partly drawn) [Compound 201, BOCNH-P3(L-t-BuGly)-P2-[(4R)-(4-methoxyphthalazine-1-oxo)-S -proline]-P1(1R,2S VinylAcca)-CONHSO2Cyclopropane] | < 100 | < 100
C=CC1C[C@]1(NC(=O)[C@@H]1C[C@@H](Oc2nnc(O)c3ccccc23)CN1C(=O)[C@@H](NC(=O)OC(C)(C)C)C(C)(C)C)C(=O)NS(=O)(=O)C1CC1 (stereo partly drawn) [Compound 202, BOCNH-P3(L-t-BuGly)-P2[(4R)-(4-hydroxyphthalazine-1-oxo)-S -proline]P1(1R,2S VinylAcca)-CONHSO2Cyclopropane] | < 100 | 1000 to 10000
C=CC1C[C@]1(NC(=O)[C@@H]1C[C@@H](Oc2ccc3c(Cl)nccc3c2SCCC)CN1C(=O)[C@@H](NC(=O)OC(C)(C)C)C(C)(C)C)C(=O)NS(=O)(=O)C1CC1 (stereo partly drawn) [Compound 204, BOCNH-P3(L-t-BuGly)-P2[(4R)-(1-Chloro-5propylthio -isoquinolin-6-oxo)-S-proline]-P1(1R,2S VinylAcca)-CONHSO2Cyclopropane] | < 100 | 100 to 1000
C=CC1C[C@]1(NC(=O)[C@@H]1C[C@@H](Oc2nccc3c(SCCC)c(OCC)ccc23)CN1C(=O)[C@@H](NC(=O)OC(C)(C)C)C(C)(C)C)C(=O)NS(=O)(=O)C1CC1 (stereo partly drawn) [Compound 206, BOCNH-P3(L-t-BuGly)-P2[(4R)-(6-ethoxy-5propylthio -isoquinoline-1-oxo)-S-proline]-P1(1R,2S VinylAcca)-CONHSO2Cyclopropane] | < 100 | < 100
C=CC1C[C@]1(NC(=O)[C@@H]1C[C@@H](Oc2nccc3c(SC)c(OC)ccc23)CN1C(=O)[C@@H](NC(=O)OC(C)(C)C)C(C)(C)C)C(=O)NS(=O)(=O)C1CC1 (stereo partly drawn) [Compound 207, BOCNH-P3(L-t-BuGly)-P2 [(4R)-(6-methoxy-5-methylthio-isoquinolin-1-oxo)-S-proline]-P1(1R,2S VinylAcca)-CONHSO2Cyclopropane] | < 100 | < 100
C=CC1C[C@]1(NC(=O)[C@@H]1C[C@@H](Oc2nccc3c(C(=O)c4cccs4)c(OC)ccc23)CN1C(=O)[C@@H](NC(=O)OC(C)(C)C)C(C)(C)C)C(=O)NS(=O)(=O)C1CC1 (stereo partly shown) [Compound 209] | < 100 | 100 to 1000
C=CC1C[C@]1(NC(=O)[C@@H]1C[C@@H](Oc2nccc3cc(C)ccc23)CN1C(=O)[C@@H](NC(=O)OC(C)(C)C)C(C)(C)C)C(=O)NS(=O)(=O)C1CC1 (stereo partly drawn) [Compound 210, BOCNH-P3(L-tert-BuGly)-P2[(4R)-(6-methyl isoquinolin-1-oxo)-S -proline]-P1(1R,2S Vinyl Acca)-CONHSO2-Cyclopropane] | < 100 | < 100
C=CC1C[C@]1(NC(=O)[C@@H]1C[C@@H](Oc2nccc3c4c(ccc23)OCO4)CN1C(=O)[C@@H](NC(=O)OC(C)(C)C)C(C)(C)C)C(=O)NS(=O)(=O)C1CC1 (stereo partly drawn) [Compound 211, BOCNH-P3(L-t-BuGly)-P2-[(4R)-(1,3-Dioxa-7-aza-cyclopenta[α]naphthalen-6-ol)-S -proline]-P1(1R,2S VinylAcca)-CONHSO2Cyclopropane] | < 100 | < 100
C=CC1C[C@]1(NC(=O)[C@@H]1C[C@@H](Oc2cc3c(Cl)nccc3c3c2OCO3)CN1C(=O)[C@@H](NC(=O)OC(C)(C)C)C(C)(C)C)C(=O)NS(=O)(=O)C1CC1 (stereo partly drawn) [Compound 212, BOCNH-P3(L-t-BuGly)-P2[(4R)-(6-Chloro-1,3-dioxa-7aza -cyclopenta[α]naphthalen-4-oxo)-S-proline]-P1(1R,2S VinylAcca)-CONHSO2Cyclopropane] | < 100 | < 100
C=CC1C[C@]1(NC(=O)[C@@H]1C[C@@H](Oc2nccc3c4c(c(SC)cc23)OCO4)CN1C(=O)[C@@H](NC(=O)OC(C)(C)C)C(C)(C)C)C(=O)NS(=O)(=O)C1CC1 (stereo partly drawn) [Compound 213, BOCNH-P3(L-t-BuGly)-P2[(4R)-(4-methylthio-1,3-dioxa-7-aza-cyclopenta[a]naphthalen-6-yloxy)-S-proline]-P1(1R,2S VinylAcca)-CONHSO2Cyclopropane] | < 100 | < 100
C=CC1C[C@]1(NC(=O)[C@@H]1C[C@@H](Oc2nc3c(c4ccccc24)CCC3)CN1C(=O)[C@@H](NC(=O)OC(C)(C)C)C(C)(C)C)C(=O)NS(=O)(=O)C1CC1 (stereo partly drawn) [Compound 215, BOCNH-P3(L-t-BuGly)-P2[(1R)-(2,3-dihydro-1 H-4aza -cyclopenta[α]naphthalen-5-yloxy)-S-proline]-P1(1R,2S VinylAcca)-CONHSO2Cyclopropane] | < 100 | < 100
C=CC1C[C@]1(NC(=O)[C@@H]1C[C@@H](Oc2nc3c(c4ccccc24)OCC3)CN1C(=O)[C@@H](NC(=O)OC(C)(C)C)C(C)(C)C)C(=O)NS(=O)(=O)C1CC1 (stereo partly drawn) [Compound 219, BOCNH-P3(L-t-BuGly)-P2[(4R)-(2,3-dihydro-1-oxa-4aza -cyclopenta[α]naphthalen-5-yloxy)-S-proline]-P1(1R,2S VinylAcca)-CONHSO2Cyclopropane] | < 100 | < 100

Source: patent US7915291B2, “Hepatitis C virus inhibitors” (Bristol-Myers Squibb Company, priority 2002, dated 2011)
